Activity calls are given as the source filed them. Residues, ends and D or L forms follow the SMILES beside them.
Experiments:
[1] = target: T1, Membrane-associated tyrosine- and threonine-specific cdc2-inhibitory kinase (Homo sapiens) (UniProt Q99640); experiment: Activity at human Myt1 (75 to 362) expressed in Escherichia coli BL21 (DE3) cells assessed as Cdk1 phosphorylation at Try15 at 10 uM after 30 mins by fluorescence polarization immunoassay
T1 sequence (whole entry): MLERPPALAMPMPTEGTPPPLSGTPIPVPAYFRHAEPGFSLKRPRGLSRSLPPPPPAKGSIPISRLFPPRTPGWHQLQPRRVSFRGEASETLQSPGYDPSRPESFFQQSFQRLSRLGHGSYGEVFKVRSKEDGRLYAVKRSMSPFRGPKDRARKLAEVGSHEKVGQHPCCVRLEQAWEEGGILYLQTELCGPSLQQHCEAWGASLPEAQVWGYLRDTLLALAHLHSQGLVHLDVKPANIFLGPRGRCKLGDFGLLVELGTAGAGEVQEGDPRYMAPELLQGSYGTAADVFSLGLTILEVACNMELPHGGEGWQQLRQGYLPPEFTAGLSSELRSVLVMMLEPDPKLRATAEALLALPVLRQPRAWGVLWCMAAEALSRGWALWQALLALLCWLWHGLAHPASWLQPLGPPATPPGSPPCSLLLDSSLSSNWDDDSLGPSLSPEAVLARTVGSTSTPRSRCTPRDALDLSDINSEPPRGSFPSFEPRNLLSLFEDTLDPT

[2] = target: T1, Membrane-associated tyrosine- and threonine-specific cdc2-inhibitory kinase (Homo sapiens); experiment: Activity at human Myt1 (75 to 362) expressed in Escherichia coli BL21 (DE3) cells assessed as Cdk1 phosphorylation at Thr14 at 10 uM after 30 mins by fluorescence polarization immunoassay
[3] = target: T1, Membrane-associated tyrosine- and threonine-specific cdc2-inhibitory kinase (Homo sapiens); experiment: Activity at full length human Myt1 expressed in human HEK293 cells assessed as Cdk1 phosphorylation at Thr14 at 10 uM after 30 mins by fluorescence polarization immunoassay
[4] = target: T1, Membrane-associated tyrosine- and threonine-specific cdc2-inhibitory kinase (Homo sapiens); experiment: Activity at full length human Myt1 expressed in human HEK293 cells assessed as Cdk1 phosphorylation at Try15 at 10 uM after 30 mins by fluorescence polarization immunoassay
[5] = target: T2, Membrane-associated tyrosine- and threonine-specific cdc2-inhibitory kinase (Homo sapiens, UniProt Q99640); experiment: Activity at full length human Myt1 expressed in human HEK293 cells at 10 uM after 30 mins by fluorescence polarization immunoassay
T2 sequence (Q99640 whole entry): T1 sequence (whole entry)

[6] = target: T2, Membrane-associated tyrosine- and threonine-specific cdc2-inhibitory kinase; experiment: Competitive inhibition of human Myt1 by TR-FRET assay

CC[C@H](C)[C@H](NC(=O)[C@H](CCCCN)NC(=O)[C@@H](N)CCC(N)=O)C(=O)NCC(=O)N[C@@H](CCC(=O)O)C(=O)NCC(=O)N[C@H](C(=O)N[C@@H](Cc1ccc(OP(=O)(O)O)cc1)C(=O)NCC(=O)N[C@H](C(=O)N[C@H](C(=O)N[C@@H](Cc1ccc(O)cc1)C(=O)N[C@@H](CCCCN)C(=O)N[C@@H](CS)C(=O)O)C(C)C)C(C)C)[C@@H](C)O (HELM PEPTIDE1{Q.K.I.G.E.G.T.[O=C([C@H](Cc1ccc(OP(=O)(O)O)cc1)N[*:1])[*:2]].G.V.V.Y.K.C}$$$$V2.0)
18 nM: EC50 [5]
inactive: Activity [1] | Activity [2] | Activity [3] | Activity [4]

CC[C@H](C)[C@H](NC(=O)[C@H](CCCCN)NC(=O)[C@@H](N)CCC(N)=O)C(=O)NCC(=O)N[C@@H](CCC(=O)O)C(=O)NCC(=O)N[C@H](C(=O)N[C@@H](Cc1ccc(O)cc1)C(=O)NCC(=O)N[C@H](C(=O)N[C@H](C(=O)N[C@@H](Cc1ccc(O)cc1)C(=O)N[C@@H](CCCCN)C(=O)N[C@@H](CS)C(=O)O)C(C)C)C(C)C)[C@@H](C)OP(=O)(O)O (HELM PEPTIDE1{Q.K.I.G.E.G.[C[C@@H](OP(=O)(O)O)[C@H](N[*:1])C(=O)[*:2]].Y.G.V.V.Y.K.C}$$$$V2.0)
inactive: Activity [1] | Activity [2] | Activity [3] | Activity [4]

CC[C@H](C)[C@H](NC(=O)[C@H](CCCCN)NC(=O)[C@@H](N)CCC(N)=O)C(=O)NCC(=O)N[C@@H](CCC(=O)O)C(=O)NCC(=O)N[C@H](C(=O)N[C@@H](Cc1ccc(OP(=O)(O)O)cc1)C(=O)NCC(=O)N[C@H](C(=O)N[C@H](C(=O)N[C@@H](Cc1ccc(O)cc1)C(=O)N[C@@H](CCCCN)C(=O)N[C@@H](CS)C(=O)O)C(C)C)C(C)C)[C@@H](C)OP(=O)(O)O (HELM PEPTIDE1{Q.K.I.G.E.G.[C[C@@H](OP(=O)(O)O)[C@H](N[*:1])C(=O)[*:2]].[O=C([C@H](Cc1ccc(OP(=O)(O)O)cc1)N[*:1])[*:2]].G.V.V.Y.K.C}$$$$V2.0)
inactive: Activity [1] | Activity [2] | Activity [3] | Activity [4]

CCN(CC)CCOc1ccc(Nc2ncc3cc(-c4c(Cl)cccc4Cl)c(=O)n(C)c3n2)cc1 [PD-0166285]
7 nM: IC50 [6]

H-EKIGEGTYGVVYKC-OH
inactive: Activity [1] | Activity [2] | Activity [3] | Activity [4]

H-QKIGEGTYGVVYKC-OH
inactive: Activity [1] | Activity [2] | Activity [3] | Activity [4]

Reference: ChEMBL document CHEMBL1944550, “In vitro and in silico studies on substrate recognition and acceptance of human PKMYT1, a Cdk1 inhibitory kinase” (Bioorg Med Chem Lett, 2012)
